Read-outs that look alike come from different tables or passages of the source.
Tests used:
Test in all cases: Glasshouse assay for herbicidal activity (pre- and post-emergence), percentage phytotoxicity
Assay type in all cases: in vivo
[1] = test system: Alopecurus myosuroides (ALOMY); conditions: Alopecurus myosuroides
Experimental: (§1) Test—Glasshouse Assay for Herbicidal Activity
(§2) Seeds of a variety of monocotyledonous and dicotyledonous test plants are sown in standard soil in pots. The plants are cultivated for one day (for pre-emergence (PRE)) or for about 12 days (for post-emergence (POST)) under controlled conditions in a glasshouse (warm climate species at 24/18° C., cool climate species at 20/16° C., both at day/night; 16 hours light; 65% humidity).
(§3) The test plants are then grown on, in a glasshouse (greenhouse) under controlled conditions (warm climate species at 24/18° C., cool climate species at 20/16° C., both at day/night; 16 hours light; 65% humidity) and are watered twice daily. 15 days after application of the test herbicide (15 DAA) (for post-emergence), and 20 days after application of the test herbicide (20 DAA) (for pre-emergence), the test plants are evaluated visually, and an assessed percentage phytotoxicity score is given for each herbicidal application on each plant species (with 100%=total damage to plant; 0%=no damage to plant).
(§4) The plant species tested are as follows: Alopecurus myosuroides (ALOMY), Avena fatua (AVEFA), Lolium perenne (LOLPE), Echinochloa crus-galli (ECHCG).

Avena fatua (AVEFA) = conditions: Avena fatua
Experimental: as §1, §2, §3, §4

[2] = test system: Echinochloa crus-galli (ECHCG); conditions: Echinochloa crus-galli
Experimental: as §1, §2, §3, §4

Lolium perenne (LOLPE) = conditions: Lolium perenne
Experimental: as §1, §2, §3, §4

[3] = post-emergence, 360 h, Rate 250 g/ha, post-emergence, assessed visually 15 DAA, 100%=total damage, 0%=no damage, read-out: Post-emergence herbicidal activity (percentage phytotoxicity) ALOMY POST
[4] = pre-emergence, 480 h, Rate 250 g/ha, pre-emergence, assessed visually 20 DAA, 100%=total damage, 0%=no damage, read-out: Pre-emergence herbicidal activity (percentage phytotoxicity) ALOMY PRE
[5] = post-emergence, 360 h, Rate 250 g/ha, post-emergence, assessed visually 15 DAA, 100%=total damage, 0%=no damage, read-out: Post-emergence herbicidal activity (percentage phytotoxicity) AVEFA POST
[6] = pre-emergence, 480 h, Rate 250 g/ha, pre-emergence, assessed visually 20 DAA, 100%=total damage, 0%=no damage, read-out: Pre-emergence herbicidal activity (percentage phytotoxicity) AVEFA PRE
[7] = post-emergence, 360 h, Rate 250 g/ha, post-emergence, assessed visually 15 DAA, 100%=total damage, 0%=no damage, read-out: Post-emergence herbicidal activity (percentage phytotoxicity) ECHCG POST
[8] = pre-emergence, 480 h, Rate 250 g/ha, pre-emergence, assessed visually 20 DAA, 100%=total damage, 0%=no damage, read-out: Pre-emergence herbicidal activity (percentage phytotoxicity) ECHCG PRE
[9] = post-emergence, 360 h, Rate 250 g/ha, post-emergence, assessed visually 15 DAA, 100%=total damage, 0%=no damage, read-out: Post-emergence herbicidal activity (percentage phytotoxicity) LOLPE POST
[10] = pre-emergence, 480 h, Rate 250 g/ha, pre-emergence, assessed visually 20 DAA, 100%=total damage, 0%=no damage, read-out: Pre-emergence herbicidal activity (percentage phytotoxicity) LOLPE PRE

| Compound | pest or weed control at 250 g/ha [1, 3] [%] | pest or weed control at 250 g/ha [1, 4] [%] | pest or weed control at 250 g/ha (Avena fatua (AVEFA); [5]) [%] | pest or weed control at 250 g/ha (Avena fatua (AVEFA); [6]) [%] | pest or weed control at 250 g/ha [2, 7] [%] | pest or weed control at 250 g/ha [2, 8] [%] | pest or weed control at 250 g/ha (Lolium perenne (LOLPE); [9]) [%] | pest or weed control at 250 g/ha (Lolium perenne (LOLPE); [10]) [%] | pest or weed control at 250 g/ha ([1]; post-emergence, 360 h, post-emergence, 250 g/ha, 15 DAA, visual score (100%=total damage; 0%=no damage), read-out: ALOMY POST herbicidal activity (percentage phytotoxicity)) [%] | pest or weed control at 250 g/ha ([1]; pre-emergence, 480 h, pre-emergence, 250 g/ha, 20 DAA, visual score (100%=total damage; 0%=no damage), read-out: ALOMY PRE herbicidal activity (percentage phytotoxicity)) [%] | pest or weed control at 250 g/ha (Avena fatua (AVEFA); post-emergence, 360 h, post-emergence, 250 g/ha, 15 DAA, visual score (100%=total damage; 0%=no damage), read-out: AVEFA POST herbicidal activity (percentage phytotoxicity)) [%] | pest or weed control at 250 g/ha (Avena fatua (AVEFA); pre-emergence, 480 h, pre-emergence, 250 g/ha, 20 DAA, visual score (100%=total damage; 0%=no damage), read-out: AVEFA PRE herbicidal activity (percentage phytotoxicity)) [%] | pest or weed control at 250 g/ha ([2]; post-emergence, 360 h, post-emergence, 250 g/ha, 15 DAA, visual score (100%=total damage; 0%=no damage), read-out: ECHCG POST herbicidal activity (percentage phytotoxicity)) [%] | pest or weed control at 250 g/ha ([2]; pre-emergence, 480 h, pre-emergence, 250 g/ha, 20 DAA, visual score (100%=total damage; 0%=no damage), read-out: ECHCG PRE herbicidal activity (percentage phytotoxicity)) [%] | pest or weed control at 250 g/ha (Lolium perenne (LOLPE); post-emergence, 360 h, post-emergence, 250 g/ha, 15 DAA, visual score (100%=total damage; 0%=no damage), read-out: LOLPE POST herbicidal activity (percentage phytotoxicity)) [%] | pest or weed control at 250 g/ha (Lolium perenne (LOLPE); pre-emergence, 480 h, pre-emergence, 250 g/ha, 20 DAA, visual score (100%=total damage; 0%=no damage), read-out: LOLPE PRE herbicidal activity (percentage phytotoxicity)) [%] |
| --- | --- | --- | --- | --- | --- | --- | --- | --- | --- | --- | --- | --- | --- | --- | --- | --- |
| C#CC(C)(C)NC(=O)CC1CC(=O)C(c2c(C)cc(C#CC)cc2C)C1=O (single isomer, unassigned) [Compound A56] | 100 | 100 | 100 | 90 | 100 | 100 | 90 | 90 | – | – | – | – | – | – | – | – |
| C#CC(C)N(C)C(=O)CC1CC(=O)C(c2c(C)cc(C)cc2C)C1=O (single isomer, unassigned) [Compound A183] | – | – | – | – | – | – | – | – | 70 | 50 | 70 | 0 | 80 | 80 | 70 | 90 |
| CC#Cc1cc(C)c(C2C(=O)CC(CC(=O)NC(C)C)C2=O)c(C)c1 (centres unmarked) [Compound A8, 2-[3-(2,6-dimethyl-4-prop-1-ynyl-phenyl)-2,4-dioxo-cyclopentyl]-N-isopropyl-acetamide] | 100 | 100 | 100 | 100 | 100 | 100 | 100 | 100 | – | – | – | – | – | – | – | – |
| C#Cc1cc(C)c(C2C(=O)CC(CC(=O)NC(C)CC)C2=O)c(C)c1 (centres unmarked) [Compound A9, 2-[3-(4-ethynyl-2,6-dimethyl-phenyl)-2,4-dioxo-cyclopentyl]-N-sec-butyl-acetamide] | 80 | 90 | 100 | 90 | 90 | 100 | 80 | 90 | – | – | – | – | – | – | – | – |
| C#CCNC(=O)CC1CC(=O)C(c2c(C)cc(C)cc2C)C1=O (centres unmarked) [Compound A10] | 80 | 70 | 60 | 70 | 90 | 90 | 90 | 90 | – | – | – | – | – | – | – | – |
| C#CC(C)(C)NC(=O)CC1CC(=O)C(c2c(C)cc(C)cc2C)C1=O (centres unmarked) [Compound A11] | 80 | 70 | 70 | 50 | 80 | 70 | 70 | 70 | – | – | – | – | – | – | – | – |
| Cc1cc(C)c(C2C(=O)CC(CC(=O)NCC3CCOCC3)C2=O)c(C)c1 (centres unmarked) [Compound A13] | 80 | 50 | 70 | 40 | 80 | 100 | 80 | 70 | – | – | – | – | – | – | – | – |
| Cc1cc(C)c(C2C(=O)CC(CC(=O)NC3CCOCC3)C2=O)c(C)c1 (centres unmarked) [Compound A17] | 80 | 70 | 70 | 40 | 80 | 70 | 80 | 70 | – | – | – | – | – | – | – | – |
| Cc1ccc(CNC(=O)CC2CC(=O)C(c3c(C)cc(C)cc3C)C2=O)nc1 (centres unmarked) [Compound A23] | 80 | 80 | 70 | 60 | 90 | 100 | 80 | 70 | – | – | – | – | – | – | – | – |
| Cc1cc(C)c(C2C(=O)CC(CC(=O)N3CCOCC3)C2=O)c(C)c1 (centres unmarked) [Compound A24] | 90 | 80 | 90 | 90 | 100 | 100 | 100 | 90 | – | – | – | – | – | – | – | – |
| C#CCNC(=O)CC1CC(=O)C(c2c(C)cc(C#CC)cc2C)C1=O (centres unmarked) [Compound A28] | 100 | 100 | 100 | 100 | 100 | 90 | 100 | 90 | – | – | – | – | – | – | – | – |
| CC#Cc1cc(C)c(C2C(=O)CC(CC(=O)NCCCC)C2=O)c(C)c1 (centres unmarked) [Compound A29] | 100 | 100 | 100 | 90 | 100 | 100 | 100 | 100 | – | – | – | – | – | – | – | – |
| CC#Cc1cc(C)c(C2C(=O)CC(CC(=O)NCC(C)C)C2=O)c(C)c1 (centres unmarked) [Compound A30] | 100 | 100 | 100 | 100 | 100 | 100 | 100 | 100 | – | – | – | – | – | – | – | – |
| CC#Cc1cc(C)c(C2C(=O)CC(CC(=O)NC(C)(C)C)C2=O)c(C)c1 (centres unmarked) [Compound A31] | 100 | 100 | 100 | 90 | 100 | 100 | 100 | 100 | – | – | – | – | – | – | – | – |
| CC#Cc1cc(C)c(C2C(=O)CC(CC(=O)NC3CC3)C2=O)c(C)c1 (centres unmarked) [Compound A32] | 100 | 70 | 100 | 80 | 100 | 100 | 100 | 90 | – | – | – | – | – | – | – | – |
| CC#Cc1cc(C)c(C2C(=O)CC(CC(=O)NC(C)CC)C2=O)c(C)c1 (centres unmarked) [Compound A33] | 100 | 100 | 100 | 100 | 100 | 100 | 100 | 100 | – | – | – | – | – | – | – | – |

From patent US10206394B2, “Herbicidal compounds” (Syngenta Participations AG, priority 2014, dated 2019)
